# Experiments:
# [1] = target: rat TAAR1 (Rattus norvegicus (Rat), UniProt Q923Y9); experiment: Radioligand binding assay on rat TAAR1; settings: for Ki: rat TAAR1 (second value of the cell), HEK-293 membranes, read-out: Ki (μM) mouse/rat
# Outline: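 Membranes from HEK293 cells stably expressing rat TAAR1 were used, with radioligand Kd determined by saturation for each batch. Compounds (10 pM to 10 μM, in duplicate) were incubated for 1 h at 4 °C. Bound radioactivity was collected by filtration onto PEI-soaked GF/C filters and counted by scintillation.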
# [2] = target: mouse TAAR1 (Mus musculus (Mouse), UniProt Q923Y8); experiment: Radioligand binding assay on mouse TAAR1; settings: for Ki: mouse TAAR1 (first value of the cell), HEK-293 membranes, read-out: Ki (μM) mouse/rat
# Chain of mouse TAAR1 (Q923Y8 whole entry): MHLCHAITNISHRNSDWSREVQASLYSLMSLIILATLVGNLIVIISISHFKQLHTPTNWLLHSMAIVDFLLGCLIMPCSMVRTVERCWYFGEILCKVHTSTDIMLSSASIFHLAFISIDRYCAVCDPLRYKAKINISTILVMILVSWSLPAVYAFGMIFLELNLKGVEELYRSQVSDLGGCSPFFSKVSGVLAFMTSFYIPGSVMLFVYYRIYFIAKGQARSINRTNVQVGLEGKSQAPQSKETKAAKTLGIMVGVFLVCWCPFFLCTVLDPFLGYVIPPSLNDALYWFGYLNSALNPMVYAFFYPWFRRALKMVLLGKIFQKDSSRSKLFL
# Outline: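 Membranes from HEK293 cells stably expressing mouse TAAR1, Kd of radioligand determined per batch by saturation. Compounds tested 10 pM to 10 μM in duplicate, incubated 1 h at 4 °C, then filtration over PEI-soaked GF/C filters and scintillation counting.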
# Chain of rat TAAR1 (Q923Y9 whole entry): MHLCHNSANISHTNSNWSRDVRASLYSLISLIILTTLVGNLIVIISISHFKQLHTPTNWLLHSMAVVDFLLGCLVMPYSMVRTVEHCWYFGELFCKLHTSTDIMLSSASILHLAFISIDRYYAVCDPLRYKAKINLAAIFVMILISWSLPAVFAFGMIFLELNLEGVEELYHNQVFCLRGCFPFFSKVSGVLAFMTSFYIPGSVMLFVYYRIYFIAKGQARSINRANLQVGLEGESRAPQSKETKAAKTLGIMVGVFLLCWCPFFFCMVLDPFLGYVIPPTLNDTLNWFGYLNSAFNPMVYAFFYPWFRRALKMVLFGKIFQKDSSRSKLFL
Compound,Ki [1] [µM],Ki [2] [µM],"Kd ([1]; rat TAAR1 membranes, saturation curve, usual value, read-out: dissociation constant (Kd) of the radioligand) [nM]","Kd ([2]; mouse TAAR1 membranes, saturation curve, usual value, read-out: dissociation constant (Kd) of the radioligand) [nM]"
"FC(F)(F)c1cnc(Nc2ccc([C@@H]3CNCCO3)c(Cl)c2)nc1 [Example 204, ((R)-3-Chloro-4-morpholin-2-yl-phenyl)-(5-trifluoromethyl-pyrimidin-2-yl)-amine]",0.0021,0.0038,–,–
"Clc1cnc(Nc2ccc([C@@H]3CNCCO3)cc2)cn1 [Example 205, (R)-5-Chloro-N-(4-(morpholin-2-yl)phenyl)pyrazin-2-amine]",0.162,0.0026,–,–
"Clc1cncc(Nc2ccc([C@@H]3CNCCO3)cc2)n1 [Example 206, (R)-6-Chloro-N-(4-(morpholin-2-yl)phenyl)pyrazin-2-amine]",0.0963,0.005,–,–
"Fc1cc(Nc2ncc(OCC(F)(F)F)cn2)ccc1[C@@H]1CNCCO1 [Example 207, (R)—N-(3-Fluoro-4-(morpholin-2-yl)phenyl)-5-(2,2,2-trifluoroethoxy)pyrimidin-2-amine]",0.0102,0.0043,–,–
"Fc1cc(Nc2nccc(OCC(F)(F)F)n2)ccc1[C@@H]1CNCCO1 [Example 208, (R)—N-(3-Fluoro-4-(morpholin-2-yl)phenyl)-4-(2,2,2-trifluoroethoxy)pyrimidin-2-amine]",0.0035,0.003,–,–
"Fc1cc(Nc2ncc(Cl)cn2)ccc1[C@@H]1CNCCO1 [Example 210, (R)-5-Chloro-N-(3-fluoro-4-(morpholin-2-yl)phenyl)pyrimidin-2-amine]",0.0266,0.0047,–,–

# Second part, the compound after the results:
Ki [1] [µM],Ki [2] [µM],"Kd ([1]; rat TAAR1 membranes, saturation curve, usual value, read-out: dissociation constant (Kd) of the radioligand) [nM]","Kd ([2]; mouse TAAR1 membranes, saturation curve, usual value, read-out: dissociation constant (Kd) of the radioligand) [nM]",Compound
0.0025,0.0032,–,–,"Fc1cc(Nc2ncc(F)c(OCC(F)(F)F)n2)ccc1[C@@H]1CNCCO1 [Example 209, (R)-5-Fluoro-N-(3-fluoro-4-(morpholin-2-yl)phenyl)-4-(2,2,2-trifluoroethoxy)pyrimidin-2-amine]"
0.0011,0.0042,–,–,"FC(F)(F)COc1ccnc(Nc2ccc([C@@H]3CNCCO3)c(Cl)c2)n1 [Example 211, ((R)-3-Chloro-4-morpholin-2-yl-phenyl)-[4-(2,2,2-trifluoro-ethoxy)-pyrimidin-2-yl]-amine]"
–,–,~2.3,~0.7,"CCN(C[C@H]1COC(N)=N1)c1ccccc1 [^3[H]-(S)-4-[(ethyl-phenylamino)-methyl]-4,5-dihydro-oxazol-2-ylamine, reference compound]"
